Measurements from patent US10918106B2, “Methods for hydraulic enhancement of crops” (Sound Agriculture Company, priority 2015, dated 2021).
Entries after “also recorded” stand apart in the source; their conditions may differ.

Legend:
Format in all cases: in vivo
plant = experiment: Hydraulic enhancement test of ABA biosynthesis inhibitor fluridone; details: fluridone 1 μg (FIG. 15)
Procedure: Using this discovery, it could be reasoned that addition of inhibitors of ABA biosynthesis would result in increased hydraulic enhancement. In another experiment, fluridone was tested for its effect in hydraulic enhancement. Fluridone is an inhibitor of the phytoene destaturase, which is an upstream step in the synthesis of abscisic acid.

tested plant = experiment: Hydraulic enhancement test of plant growth regulators (gibberellins, cytokinins); details: for hydraulic enhancement by gibberellins: FIG. 16
Procedure: Specific combinations of plant growth regulators (PGRs) were used for hydraulic enhancement and increased harvest yield of crops. PGRs were tested to be co-applied with strigolactones and/or AB compounds (e.g., AB01). PGRs were also tested in the absence of strigolactones and/or AB compounds. […] PGRs were tested as a seed treatment, soil drench, granule formulation, or foliar spray. […] In another experiment, the effect of hydraulic enhancement was also tested with cytokinins, including kinetin, zeatin, 6-benzylaminopurine (6-BAP), diphenylurea, thidiazuron, and their chemical derivatives and analogs.

[1] = test system: corn (Zea mays) seedlings; experiment: ex vivo hydraulic enhancement (xVHS) transpiration assay
Procedure: In this assay with corn (Zea mays), seedlings were grown in defined potting soil (in this case, Sunshine Mix #4) for 2 weeks until they were approximately 15 to 20 centimeters tall. Seedlings were then cut at the base of the stem and placed in individual tubes with defined volume of water (FIG. 4A). Hydraulic enhancing chemistry (for example, AB01) was present in the defined volume of water at various concentrations. Excised seedlings were placed in a defined temperature and humidity environment under continuous illumination, and water use was measured after 12, 18, or 24 hours. Using this assay, chemistry or other inputs that induce hydraulic enhancement can be tested and discovered. In this assay, 100 ng of AB01 in acetone was added to 2 week old corn seedlings and water use was monitored over 24 hours.

Compound: fluridone
- effect on hydraulic enhancement (plant): improved hydraulic enhancement; also recorded: increase hydraulic enhancement

Compound: C=C1C[C@]23C[C@@]1(O)CC[C@H]2[C@@]12CC[C@H](O)[C@@](C)(C(=O)O1)[C@H]2[C@@H]3C(=O)O [GA1]
- hydraulic enhancement by gibberellins (tested plant): hydraulic enhancement was elicited

Compound: CC1=CC(Oc2c(C)occc2=O)OC1=O (stereo not drawn) [AB09, 2-methyl-3-((4-methyl-5-oxo-2,5-dihydrofuran-2-yl)oxy)-4H-pyran-4-one]
- increase in transpiration ([1]; 10Ong added to the xVHS assay (FIG. 12)): 40%
- ability to induce hydraulic enhancement ([1]; screen of AB compounds/strigolactones (FIG. 12)): able to induce hydraulic enhancement; also recorded: resulted in hydraulic enhancement of crop plants

Compound: CC1=CC(=O)CC(C)(C)[C@@]1(O)/C=C/C(C)=C\C(=O)O [abscisic acid]
- effect on hydraulic enhancement in the xVHS assay ([1]; addition of abscisic acid (FIG. 14)): inhibited hydraulic enhancement; also recorded: reduce the hydraulic enhancement

Compound: CC1CC23CC1CCC2C1(C)CCCC(C)(C)C1C3C (stereo not drawn) [ent-gibberellane]
- hydraulic enhancement by gibberellins (tested plant): hydraulic enhancement was elicited

Compound: C=C1C[C@]23C[C@H]1CC[C@H]2[C@@]12C=C[C@H](O)[C@@](C)(C(=O)O1)[C@H]2[C@@H]3C(=O)O [GA7]
- hydraulic enhancement by gibberellins (tested plant): hydraulic enhancement was elicited

Compound: C=C1C[C@]23C[C@@]1(O)CC[C@H]2[C@@]12C=C[C@H](O)[C@@](C)(C(=O)O1)[C@H]2[C@@H]3C(=O)O [GA3]
- hydraulic enhancement by gibberellins (tested plant): hydraulic enhancement was elicited

Compound: c1ccc(CNc2ncnc3nc[nH]c23)cc1 [6-BAP, 6-benzylaminopurine]
- hydraulic enhancement by cytokinin (tested plant; 1 μg (FIG. 17)): improved hydraulic enhancement; also recorded: elicit hydraulic enhancement

Compound: C=C1C[C@]23C[C@@]1(O)CC[C@H]2[C@@]12C=C[C@H](O)[C@@](C)(C(=O)O1)[C@H]2[C@@H]3C(=O)O [gibberellic acid]
- hydraulic enhancement by gibberellins (tested plant): improved hydraulic enhancement

Compound: C=C1C[C@@]23CC[C@@H]4C(C)(C)CCC[C@@]4(C)[C@@H]2CC[C@@H]1C3 [ent-kaurene]
- hydraulic enhancement by gibberellins (tested plant): hydraulic enhancement was elicited

Compound: C=C1C[C@]23C[C@H]1CC[C@H]2[C@@]12CC[C@H](O)[C@@](C)(C(=O)O1)[C@H]2[C@@H]3C(=O)O [GA4]
- hydraulic enhancement by gibberellins (tested plant): hydraulic enhancement was elicited
